Source: ChEMBL document CHEMBL3351620, “Structure-activity relationships and molecular modeling studies of novel arylpiperazinylalkyl 2-benzoxazolones and 2-benzothiazolones as 5-HT(7) and 5-HT(1A) receptor ligands” (Eur J Med Chem, 2014)

What was measured:
[1] = target: T1, 5-hydroxytryptamine receptor 7 (Homo sapiens, UniProt P34969); experiment: Displacement of [3H]5-HT from human 5HT7 receptor transfected in […] cells after 30 mins by liquid scintillation spectrometry; assay type: cell-based
Homo sapiens = species: Homo sapiens; experiment: Selectivity ratio of Ki for human 5HT1A receptor to Ki for human 5HT7 receptor
[2] = target: T2, 5-hydroxytryptamine receptor 1A (Homo sapiens, UniProt P08908); experiment: Displacement of [3H]8-OH-DPAT from human 5-HT1A receptor transfected in […] cells after 30 mins by liquid scintillation spectrometry; assay type: cell-based
T2 sequence (P08908 whole entry): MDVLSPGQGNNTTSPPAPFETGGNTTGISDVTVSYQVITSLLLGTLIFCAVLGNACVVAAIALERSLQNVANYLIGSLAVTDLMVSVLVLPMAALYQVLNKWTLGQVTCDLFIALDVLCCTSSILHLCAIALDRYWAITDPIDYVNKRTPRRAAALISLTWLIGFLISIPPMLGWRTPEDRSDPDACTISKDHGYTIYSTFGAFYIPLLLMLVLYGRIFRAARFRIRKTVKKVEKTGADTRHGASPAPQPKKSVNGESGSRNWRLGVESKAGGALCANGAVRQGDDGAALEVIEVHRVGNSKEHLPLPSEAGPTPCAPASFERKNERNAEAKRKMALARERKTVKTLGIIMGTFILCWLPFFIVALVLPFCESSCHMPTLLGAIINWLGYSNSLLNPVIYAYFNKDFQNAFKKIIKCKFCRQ

[3] = target: T1, 5-hydroxytryptamine receptor 7; experiment: Displacement of [3H]5-HT from human 5HT7 receptor transfected in […] cells ay 1 uM after 30 mins by liquid scintillation spectrometry; assay type: cell-based

T1 sequence (P34969 whole entry): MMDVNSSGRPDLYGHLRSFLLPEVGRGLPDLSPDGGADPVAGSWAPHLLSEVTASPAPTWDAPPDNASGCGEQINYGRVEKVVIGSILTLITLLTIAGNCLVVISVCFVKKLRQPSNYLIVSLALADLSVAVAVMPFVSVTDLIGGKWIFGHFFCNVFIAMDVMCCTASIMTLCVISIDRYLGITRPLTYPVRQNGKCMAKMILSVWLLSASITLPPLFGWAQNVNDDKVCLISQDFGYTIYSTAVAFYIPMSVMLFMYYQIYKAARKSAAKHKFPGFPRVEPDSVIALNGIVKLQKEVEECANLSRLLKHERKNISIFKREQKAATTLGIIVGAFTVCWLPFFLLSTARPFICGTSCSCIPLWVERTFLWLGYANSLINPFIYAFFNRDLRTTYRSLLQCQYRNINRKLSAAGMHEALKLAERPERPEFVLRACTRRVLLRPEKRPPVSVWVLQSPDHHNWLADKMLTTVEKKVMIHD

Structure (SMILES)	Ki [1] [nM]	Ratio Ki (Homo sapiens)	Ki [2] [nM]	inhibition [3] [%]
O=c1[nH]c2ccccc2n1CCCCCN1CCN(c2ccc(Cl)cc2)CC1	–	–	454	–
COc1ccccc1N1CCN(CCCCn2c(=O)oc3ccccc32)CC1	10.3	1.85	19.2	–
Cc1ccccc1N1CCN(CCCCn2c(=O)sc3ccccc32)CC1	0.99	10.5	10.4	–
O=c1sc2ccccc2n1CCCCCCN1CCN(c2ccccc2)CC1	2.96	0.3	0.91	–
COc1ccccc1N1CCN(CCCCn2c(=O)sc3ccccc32)CC1	7.77	3.16	24.6	–
O=c1sc2ccccc2n1CCCCCN1CCN(c2ccccc2)CC1	20	4.78	95.7	–
O=C1Cc2ccccc2N1CCCCN1CCN(c2cccc3ccccc23)CC1	22	–	47	–
O=c1sc2ccccc2n1CCCCN1CCN(Cc2ccccc2)CC1	41.9	16.6	695	–
O=c1sc2ccccc2n1CCCCN1CCc2ccccc2C1	2.84	26.4	74.9	–
O=c1sc2ccccc2n1CCCCCCCN1CCN(c2ccccc2)CC1	7.58	0.03	0.27	–
O=c1oc2ccccc2n1CCCCN1CCN(c2ccccc2)CC1	26.3	3.43	90.3	–
COc1ccccc1N1CCN(CCCCCCn2c(=O)oc3ccccc32)CC1	11.7	0.11	1.3	–
O=c1oc2ccccc2n1CCCCCCCN1CCN(c2ccccc2)CC1	45.6	0.65	29.8	–

Second part, the compound after the results:

Ki [1] [nM]	Ratio Ki (Homo sapiens)	Ki [2] [nM]	inhibition [3] [%]	Structure (SMILES)
8.49	0.02	0.21	–	COc1ccccc1N1CCN(CCCCCCCn2c(=O)sc3ccccc32)CC1
2.9	0.14	0.43	–	COc1ccccc1N1CCN(CCCCCCn2c(=O)sc3ccccc32)CC1
14.1	0.28	3.96	–	O=c1oc2ccccc2n1CCCCCCN1CCN(c2ccccc2)CC1
46.8	1.77	83.3	–	O=c1sc2ccccc2n1CCCCN1CCN(c2ccc(Cl)cc2)CC1
36.5	25	913	–	O=c1sc2ccccc2n1CCCCN1CCN(c2ccccc2)CC1
–	–	–	92	O=C1c2cccc3cccc(c23)N1CCCCCN1CCN(c2ccccc2)CC1
5.16	1.38	7.13	–	COc1ccccc1N1CCN(CCCCCn2c(=O)sc3ccccc32)CC1
3.4	–	40	–	COc1ccccc1N1CCN(CCCn2c(=O)[nH]c3ccccc32)CC1
5.9	2.01	11.9	–	COc1ccccc1N1CCN(CCCCCn2c(=O)oc3ccccc32)CC1
1.72	3.56	6.13	–	O=c1sc2ccccc2n1CCCCN1CCN(c2cccc(Cl)c2)CC1
57.4	0.33	19.2	–	O=c1oc2ccccc2n1CCCCCN1CCN(c2ccccc2)CC1
118	–	6.7	–	O=C1Nc2cc(F)ccc2C1CCCCN1CCN(c2cccc(Cl)c2)CC1 (stereo not drawn)
9	–	6.05	–	COc1ccccc1N1CCN(CCCCC(=O)NC2CCCc3ccccc32)CC1 (stereo not drawn)
7.73	0.02	0.19	–	COc1ccccc1N1CCN(CCCCCCCn2c(=O)oc3ccccc32)CC1
